From US4927919A, “Chartreusin derivatives and salts thereof” (Ishihara Sangyo Kaisha, Ltd., priority 1985, dated 1990)
Structures can show the parent of a compound that is named as a salt.

Key:
P-388 leukemia cells = assay: Antitumor activity against P-388 leukemia cells (i.p. implanted, i.v. drug); assay type: in vivo, BDF1 mice; conditions: i.v., 30-day observation; for response vs control in vivo at 20 mg/kg / response vs control in vivo at 40 mg/kg / response vs control in vivo at 80 mg/kg / response vs control in vivo at 60 mg/kg / response vs control in vivo at 30 mg/kg / response vs control in vivo at 40 mg/kg/day / response vs control in vivo at 20 mg/kg/day: Mus musculus, P388, iv, 720 h, read-out: T/C of MST; for response vs control in vivo at 20 mg/kg: dose b: 20 mg/kg/d × 3 (days 1, 5, 9); for response vs control in vivo at 40 mg/kg: dose c: 40 mg/kg/d × 3 (days 1, 5, 9); for response vs control in vivo at 60 mg/kg: dose e: 60 mg/kg/d × 3 (days 1, 5, 9); for response vs control in vivo at 30 mg/kg: dose j: 30 mg/kg/d × 3 (days 1, 5, 9); for response vs control in vivo at 40 mg/kg/day: dose c': 40 mg/kg/d × 2 (days 1, 5); for response vs control in vivo at 20 mg/kg/day: dose b': 20 mg/kg/d × 2 (days 1, 5)
Experimental: BDF1 mice were implanted intraperitoneally with P-388 leukemia cells at a rate of 1×10^6 cells/mouse, and each drug to be tested was administered intravenously on the first, fifth and ninth days, or on the first and fifth days after the implantation. […] The T/C (%) was calculated based on the following equation: [formula]
The drugs tested were as follows: solutions prepared by dissolving each of compound Nos. 34, 36 and 43 to 46 in physiological saline; suspension or solutions prepared by dissolving each of compound Nos. 35, 38 and 49 to 55 in dimethylacetamide, followed by adding thereto a small amount of a surface active agent (e.g., Tween-80) and then physiological saline; and suspension or solutions prepared by mixing each of the other compounds and a small amount of a surface active agent (e.g., Tween-80), followed by adding thereto physiological saline.

[1] = Acute toxicity (LD50, single intravenous administration); parameters: species or system day mice; conditions: mouse, in vivo, mice, single i.v.
Description: In Table 15 are shown acute toxicity values (LD50, mg/kg) in day mice in the case of intravenously administering (once) each of the compounds of this invention in the form of preparations shown in the Preparation Examples shown in Table 16.

[2] = dose f: 80 mg/kg/d × 3 (days 1, 5, 9)

## COC1C(N)C(C)OC(OC2C(Oc3cccc4c(OC(=O)C(C)CN)c5c(=O)oc6ccc(C)c7c(=O)oc(c34)c5c67)OC(C)C3OC(c4ccccc4)OC32)C1O (stereo not drawn) [Compound 34, 6-O-(β-amino-isobutyryl)-3',4'-benzylidene-4"-epiamino-4"-deoxy-chartreusin dihydrochloride]
P-388 leukemia cells
  response vs control in vivo at 20 mg/kg: 140%
  response vs control in vivo at 40 mg/kg: 219%
[1]; Preparation Example 8
  LD50: ≥ 40 mg/kg

## CCOCCC(=O)Oc1c2cccc(OC3OC(C)C4OC(c5ccccc5)OC4C3OC3OC(C)C(N)C(OC)C3O)c2c2oc(=O)c3c(C)ccc4oc(=O)c1c2c43 (stereo not shown) [Compound 35]
P-388 leukemia cells
  response vs control in vivo at 20 mg/kg: 188%
  response vs control in vivo at 40 mg/kg: 244%
[1]; Preparation Example 6
  LD50: ≥ 40 mg/kg

## COC1C(N)C(C)OC(OC2C(Oc3cccc4c(OC(=O)CCN5CCCC5)c5c(=O)oc6ccc(C)c7c(=O)oc(c34)c5c67)OC(C)C3OC(c4ccccc4)OC32)C1O (stereo not drawn) [Compound 36, 6-O-(β-1-pyrrolidinylpropionyl)-3',4'-O-benzylidene-4"-epiamino-4"-deoxy-chartreusin dihydrochloride]
P-388 leukemia cells
  response vs control in vivo at 20 mg/kg: 168%
[1]; Preparation Example 8
  LD50: ≥ 20 mg/kg

## COC1C(N)C(C)OC(OC2C(Oc3cccc4c(OC(=O)CCCCCNC(=O)C(F)(F)F)c5c(=O)oc6ccc(C)c7c(=O)oc(c34)c5c67)OC(C)C3OC(c4ccccc4)OC32)C1O (stereo not shown) [Compound 37, 6-O-(n-trifluoroacetyl-6-amino-n-hexanoyl)-3',4'-O-benzylidene-4"-epiamino-4"-deoxy-chartreusin hydrochloride]
P-388 leukemia cells
  response vs control in vivo at 20 mg/kg: 148%
  response vs control in vivo at 40 mg/kg: 191%
[1]; Preparation Example 1
  LD50: ≥ 40 mg/kg

## COC1C(N)C(C)OC(OC2C(Oc3cccc4c(OC(=O)CCNC=O)c5c(=O)oc6ccc(C)c7c(=O)oc(c34)c5c67)OC(C)C3OC(c4cccc(Br)c4)OC32)C1O (stereo not shown) [Compound 38]
P-388 leukemia cells; [2]
  response vs control in vivo at 80 mg/kg: 133%
[1]; Preparation Example 6
  LD50: ≥ 80 mg/kg

## COC1C(N)C(C)OC(OC2C(Oc3cccc4c(OC(=O)CC(C)C)c5c(=O)oc6ccc(C)c7c(=O)oc(c34)c5c67)OC(C)C3OC(c4ccccc4)OC32)C1O (stereo not shown) [Compound 39, 6-O-(3-methyl-n-butyryl)-3',4',-O-benzylidene-4"-epiamino-4"-deoxy-chartreusin hydrochloride]
P-388 leukemia cells
  response vs control in vivo at 40 mg/kg: 207%
  response vs control in vivo at 60 mg/kg: 240%
[1]; Preparation Example 9
  LD50: ≥ 60 mg/kg

## COC1C(N)C(C)OC(OC2C(Oc3cccc4c(OC(=O)C(C)CNC(=O)C(F)(F)F)c5c(=O)oc6ccc(C)c7c(=O)oc(c34)c5c67)OC(C)C3OC(c4ccccc4)OC32)C1O (stereo not shown) [Compound 40]
P-388 leukemia cells
  response vs control in vivo at 20 mg/kg: 142%
  response vs control in vivo at 40 mg/kg: 219%
[1]; Preparation Example 1
  LD50: ≥ 40 mg/kg

## COC1C(N)C(C)OC(OC2C(Oc3cccc4c(OC(=O)CC(C)NC(=O)C(F)(F)F)c5c(=O)oc6ccc(C)c7c(=O)oc(c34)c5c67)OC(C)C3OC(c4ccccc4)OC32)C1O (stereo not shown) [Compound 41]
P-388 leukemia cells
  response vs control in vivo at 40 mg/kg: 187%
[1]; Preparation Example 1
  LD50: ≥ 40 mg/kg

## COC1C(N)C(C)OC(OC2C(Oc3cccc4c(OC(=O)CCNC=O)c5c(=O)oc6ccc(C)c7c(=O)oc(c34)c5c67)OC(C)C3OC(c4ccccc4)OC32)C1O (stereo not shown) [Compound 42]
P-388 leukemia cells
  response vs control in vivo at 20 mg/kg: 130%
  response vs control in vivo at 40 mg/kg: 199%
[1]; Preparation Example 1
  LD50: ≥ 40 mg/kg

## CNCCC(=O)Oc1c2cccc(OC3OC(C)C4OC(c5ccccc5)OC4C3OC3OC(C)C(N)C(OC)C3O)c2c2oc(=O)c3c(C)ccc4oc(=O)c1c2c43 (stereo not shown) [Compound 43]
P-388 leukemia cells
  response vs control in vivo at 20 mg/kg: 150%
  response vs control in vivo at 40 mg/kg: 230%
[1]; Preparation Example 8
  LD50: ≥ 40 mg/kg

## CNCC(C)C(=O)Oc1c2cccc(OC3OC(C)C4OC(c5ccccc5)OC4C3OC3OC(C)C(N)C(OC)C3O)c2c2oc(=O)c3c(C)ccc4oc(=O)c1c2c43 (stereo not shown) [Compound 44]
P-388 leukemia cells
  response vs control in vivo at 20 mg/kg: 138%
  response vs control in vivo at 40 mg/kg: 148%
[1]; Preparation Example 8
  LD50: ≥ 40 mg/kg

## COC1C(N)C(C)OC(OC2C(Oc3cccc4c(OC(=O)C(CN)C(C)C)c5c(=O)oc6ccc(C)c7c(=O)oc(c34)c5c67)OC(C)C3OC(c4ccccc4)OC32)C1O (stereo not shown) [Compound 45]
P-388 leukemia cells
  response vs control in vivo at 30 mg/kg: 131%
[1]; Preparation Example 8
  LD50: ≥ 30 mg/kg

## COC1C(N)C(C)OC(OC2C(Oc3cccc4c(OC(=O)CCNC(=O)CN)c5c(=O)oc6ccc(C)c7c(=O)oc(c34)c5c67)OC(C)C3OC(c4ccccc4)OC32)C1O (stereo not shown) [Compound 46]
P-388 leukemia cells
  response vs control in vivo at 40 mg/kg: 148%
[1]; Preparation Example 8
  LD50: ≥ 40 mg/kg

## COC1C(N)C(C)OC(OC2C(Oc3cccc4c(OC(=O)CCC(C)=O)c5c(=O)oc6ccc(C)c7c(=O)oc(c34)c5c67)OC(C)C3OC(c4ccccc4)OC32)C1O (stereo not shown) [Compound 48]
P-388 leukemia cells
  response vs control in vivo at 20 mg/kg: 166%
  response vs control in vivo at 40 mg/kg: 219%
[1]; Preparation Example 1
  LD50: ≥ 40 mg/kg

## COC1C(N)C(C)OC(OC2C(Oc3cccc4c(OC(=O)C5CC5C)c5c(=O)oc6ccc(C)c7c(=O)oc(c34)c5c67)OC(C)C3OC(c4ccccc4)OC32)C1O (stereo not shown) [Compound 49]
P-388 leukemia cells
  response vs control in vivo at 40 mg/kg/day: 153%
[1]; Preparation Example 6
  LD50: ≥ 40 mg/kg

## COC1C(N)C(C)OC(OC2C(Oc3cccc4c(OC(=O)Cc5ccccc5)c5c(=O)oc6ccc(C)c7c(=O)oc(c34)c5c67)OC(C)C3OC(c4ccccc4)OC32)C1O (stereo not shown) [Compound 50]
P-388 leukemia cells
  response vs control in vivo at 20 mg/kg/day: 165%
  response vs control in vivo at 40 mg/kg/day: 208%
[1]; Preparation Example 7
  LD50: ≥ 40 mg/kg

## COc1cccc(C(=O)Oc2c3cccc(OC4OC(C)C5OC(c6ccccc6)OC5C4OC4OC(C)C(N)C(OC)C4O)c3c3oc(=O)c4c(C)ccc5oc(=O)c2c3c54)c1 (stereo not shown) [Compound 51, 6-O-(m-methoxybenzoyl)-3',4'-O-benzylidene-4"-epiamino-4"-deoxy-chartreusin]
P-388 leukemia cells
  response vs control in vivo at 20 mg/kg: 185%
  response vs control in vivo at 40 mg/kg: 244%
[1]; Preparation Example 6
  LD50: ≥ 40 mg/kg

## COC1C(N)C(C)OC(OC2C(Oc3cccc4c(OC(=O)c5ccc(Cl)cc5)c5c(=O)oc6ccc(C)c7c(=O)oc(c34)c5c67)OC(C)C3OC(c4ccccc4)OC32)C1O (stereo not shown) [Compound 52]
P-388 leukemia cells
  response vs control in vivo at 20 mg/kg: 167%
[1]; Preparation Example 6
  LD50: ≥ 20 mg/kg

## COC1C(N)C(C)OC(OC2C(Oc3cccc4c(OC(=O)c5cccc(C(F)(F)F)c5)c5c(=O)oc6ccc(C)c7c(=O)oc(c34)c5c67)OC(C)C3OC(c4ccccc4)OC32)C1O (stereo not shown) [Compound 53]
P-388 leukemia cells
  response vs control in vivo at 20 mg/kg: 131%
  response vs control in vivo at 40 mg/kg: 165%
[1]; Preparation Example 6
  LD50: ≥ 40 mg/kg

## CCCCCC(=O)Oc1c2cccc(OC3OC(C)C4OC(c5ccccc5)OC4C3OC3OC(C)C(N)C(OC)C3O)c2c2oc(=O)c3c(C)ccc4oc(=O)c1c2c43 (stereo not shown) [Compound 54]
P-388 leukemia cells
  response vs control in vivo at 20 mg/kg/day: 165%
[1]; Preparation Example 7
  LD50: ≥ 40 mg/kg

## COC1C(N)C(C)OC(OC2C(Oc3cccc4c(OC(=O)CCNC(=O)c5ccccc5)c5c(=O)oc6ccc(C)c7c(=O)oc(c34)c5c67)OC(C)C3OC(c4cccc(F)c4)OC32)C1O (stereo not shown) [Compound 55]
P-388 leukemia cells; [2]
  response vs control in vivo at 80 mg/kg: 133%
[1]; Preparation Example 6
  LD50: ≥ 80 mg/kg

## COC1C(N)C(C)OC(OC2C(Oc3cccc4c(OC(=O)C(C)CNC(=O)C(F)(F)F)c5c(=O)oc6ccc(C)c7c(=O)oc(c34)c5c67)OC(C)C3OC(C)(C)OC32)C1O (stereo not shown) [Compound 56]
P-388 leukemia cells; [2]
  response vs control in vivo at 80 mg/kg: 138%
[1]; Preparation Example 1
  LD50: ≥ 80 mg/kg

## COC1C(O)C(C)OC(OC2C(Oc3cccc4c(OC(=O)c5cccs5)c5c(=O)oc6ccc(C)c7c(=O)oc(c34)c5c67)OC(C)C3OC(C)(C)OC32)C1O (stereo not shown) [Compound 62]
P-388 leukemia cells; [2]
  T/C of MST: 131%
[1]; Preparation Example 2
  LD50: ≥ 80 mg/kg

## COC1C(O)C(C)OC(OC2C(Oc3cccc4c(OC(=O)c5cc6cc(OCc7ccccc7)ccc6[nH]5)c5c(=O)oc6ccc(C)c7c(=O)oc(c34)c5c67)OC(C)C3OC(c4ccccc4)OC32)C1O (stereo not shown) [Compound 101]
P-388 leukemia cells
  response vs control in vivo at 60 mg/kg: 191%
[1]; Preparation Example 2
  LD50: ≥ 60 mg/kg

## COC1C(O)C(C)OC(OC2C(Oc3cccc4c(OC(=O)c5cc6cc(O)ccc6[nH]5)c5c(=O)oc6ccc(C)c7c(=O)oc(c34)c5c67)OC(C)C3OC(c4ccccc4)OC32)C1O (stereo not shown) [Compound 102]
P-388 leukemia cells
  response vs control in vivo at 60 mg/kg: 256%
  response vs control in vivo at 30 mg/kg: 233%
[1]; Preparation Example 1
  LD50: ≥ 60 mg/kg

## COC1C(O)C(C)OC(OC2C(Oc3cccc4c(OC(=O)c5ocnc5C)c5c(=O)oc6ccc(C)c7c(=O)oc(c34)c5c67)OC(C)C3OC(c4ccccc4)OC32)C1O (stereo not shown) [Compound 103]
P-388 leukemia cells
  response vs control in vivo at 60 mg/kg: 236%
  response vs control in vivo at 30 mg/kg: 210%
[1]; Preparation Example 2
  LD50: ≥ 60 mg/kg

## COC1C(O)C(C)OC(OC2C(Oc3cccc4c(OC(=O)CCCc5c[nH]c6ccccc56)c5c(=O)oc6ccc(C)c7c(=O)oc(c34)c5c67)OC(C)C3OC(c4ccccc4)OC32)C1O (stereo not shown) [Compound 104]
P-388 leukemia cells
  response vs control in vivo at 20 mg/kg: 185%
  response vs control in vivo at 60 mg/kg: 256%
  response vs control in vivo at 30 mg/kg: 219%
[1]; Preparation Example 2
  LD50: ≥ 60 mg/kg
